Measurements reported in the supplement of paper PMC11061612.

Assays:
CS1 (Chondrosarcoma) = assay: Bliss excess, mean over the matrix (fraction); higher = more synergy
Outline: (§1)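 Cell lines grown in DMEM/F12 or RPMI with 10% FBS were plated in 1536-well plates and held 24 hours at 37°C, 5% CO2 before 72 hours of exposure to two-drug dose matrices, with DMSO typically at 0.2%. CellTiter-Glo 2.0 luminescence gave viability, which was converted to inhibition. Vehicle wells were set to 0 and blank wells to 1. Combination Emax is the second-highest inhibition in the matrix, and Bliss excess is the observed combination effect minus the expected EA + EB − EA·EB, where EA and EB are the single-agent effects.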

[1] = tested on: JHH-6 (Hepatocellular Carcinoma); assay: as above
Outline: as §1

[2] = tested on: FU-OV-1 (Ovarian Carcinoma); assay: as above
Outline: as §1

[3] = tested on: GDM-1 (Acute Myeloid Leukemia); assay: as above
Outline: as §1

[4] = tested on: NCI-H1688 (Small Cell Lung Carcinoma); assay: as above
Outline: as §1

[5] = tested on: MEG-01 (Chronic Myelogenous Leukemia); assay: as above
Outline: as §1

[6] = tested on: KG-1 (Acute Myeloid Leukemia); assay: as above
Outline: as §1

[7] = tested on: SLVL (B-Cell Non-Hodgkin's Lymphoma); assay: as above
Outline: as §1

SK-MEL-1 (Melanoma) = assay: as above
Outline: as §1

[8] = tested on: NOMO-1 (Acute Myeloid Leukemia); assay: as above
Outline: as §1

[9] = tested on: SNG-M (Endometrial Carcinoma); assay: as above
Outline: as §1

[10] = tested on: ETK-1 (Biliary Tract Carcinoma); assay: as above
Outline: as §1

[11] = tested on: EKVX (Non-Small Cell Lung Carcinoma); assay: as above
Outline: as §1

[12] = tested on: FU-OV-1 (Ovarian Carcinoma); assay: combination Emax (second highest fraction inhibited in the dose matrix, 72 h); higher = more inhibition; extreme values may be limits of the assay
Outline: as §1
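Wherever Bliss excess, mean over the matrix is given: after 72 h of two-drug dosing.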

| SMILES | Bliss excess (CS1 (Chondrosarcoma)) | Bliss excess [1] | Bliss excess [2] | Bliss excess [3] | Bliss excess [4] | Bliss excess [5] | Bliss excess [6] | Bliss excess [7] | Bliss excess (SK-MEL-1 (Melanoma)) | Bliss excess [8] | Bliss excess [9] | Bliss excess [10] | Bliss excess [11] | combination Emax [12] |
| --- | --- | --- | --- | --- | --- | --- | --- | --- | --- | --- | --- | --- | --- | --- |
| CC1(C)CCC(CN2CCN(c3ccc(C(=O)NS(=O)(=O)c4ccc(NCC5CCOCC5)c([N+](=O)[O-])c4)c(Oc4cnc5[nH]ccc5c4)c3)CC2)=C(c2ccc(Cl)cc2)C1 [Venetoclax] + C1CN(CCC1(C(=O)N[C@@H](CCO)C2=CC=C(C=C2)Cl)N)C3=NC=NC4=C3C=CN4 [Capivasertib] (first compound max 1 µM, 7x7, partner max 3 µM) | -0.072 | -0.0791 | -0.0783 | -0.0325 | -0.0065 | -0.0349 | 0.041 | -0.0284 | -0.0561 | -0.0342 | 0.0086 | -0.0619 | -0.0306 | 0.151 |
| CC1(C)CCC(CN2CCN(c3ccc(C(=O)NS(=O)(=O)c4ccc(NCC5CCOCC5)c([N+](=O)[O-])c4)c(Oc4cnc5[nH]ccc5c4)c3)CC2)=C(c2ccc(Cl)cc2)C1 [Venetoclax] + Cc1cc2ncnn2cc1Nc1ncc2c(n1)n(C1CCOCC1)c(=O)n2C [AZD7648] (first compound max 1 µM, 7x7, partner max 10 µM) | -0.0949 | -0.0302 | -0.036 | 0.0419 | 0.0457 | -0.0249 | 0.0848 | 0.0013 | -0.0242 | 0.02 | -0.0516 | 0.0273 | -0.0788 | 0.358 |
| CN(CCO)CC[C@H](CSc1ccccc1)Nc1ccc(S(=O)(=O)NC(=O)c2ccc(N3CCC([C@@H](O)c4ccccc4-c4ccc(Cl)cc4)CC3)cc2)cc1S(=O)(=O)C(F)(F)F [AZD4320] + C[C@@H](Nc1cc(F)cc(F)c1)c1cc(C(=O)N(C)C)cc2c(=O)cc(N3CCOCC3)oc12 [AZD8186] (first compound max 1 µM, 7x7, partner max 3 µM) | -0.0411 | -0.0164 | -0.0284 | 0.0375 | 0.0259 | 0.0022 | 0.066 | 0.0476 | -0.0523 | 0.0515 | 0.0018 | -0.046 | -0.0127 | 0.558 |
| CC1(C)CCC(CN2CCN(c3ccc(C(=O)NS(=O)(=O)c4ccc(NCC5CCOCC5)c([N+](=O)[O-])c4)c(Oc4cnc5[nH]ccc5c4)c3)CC2)=C(c2ccc(Cl)cc2)C1 [Venetoclax] + CCN(CCO)CCCOc1ccc2c(Nc3cc(CC(=O)Nc4cccc(F)c4)[nH]n3)ncnc2c1 [AZD2811] (first compound max 1 µM, 7x7, partner max 1 µM) | -0.0259 | -0.049 | -0.0705 | 0.0676 | 0.0436 | -0.0108 | 0.0766 | 0.0685 | -0.022 | 0.182 | -0.0246 | -0.0793 | -0.044 | 0.238 |
| COc1cccc(OCCCN)c1-c1cc(Nc2cnc(C#N)cn2)n[nH]1 [Prexasertib] + CCc1c2c(nc3ccc(O)cc13)-c1cc3c(c(=O)n1C2)COC(=O)[C@]3(O)CC [SN-38] (first compound max 1 µM, 7x7, partner max 0.3 µM) | -0.0742 | 0.0337 | 0.0846 | -0.0108 | 0.111 | -0.0073 | -0.0454 | -0.0258 | -0.0593 | -0.0319 | -0.0534 | 0.0465 | -0.0347 | 0.806 |
| CC1(C)CCC(CN2CCN(c3ccc(C(=O)NS(=O)(=O)c4ccc(NCC5CCOCC5)c([N+](=O)[O-])c4)c(Oc4cnc5[nH]ccc5c4)c3)CC2)=C(c2ccc(Cl)cc2)C1 [Venetoclax] + COc1cc(Nc2ncc3c(n2)-c2ccc(Cl)cc2C(c2c(F)cccc2OC)=NC3)ccc1C(=O)O [Alisertib] (first compound max 1 µM, 7x7, partner max 10 µM) | -0.0227 | -0.0311 | -0.0614 | 0.0312 | 0.0566 | 0.0985 | 0.273 | 0.0761 | 0.0439 | 0.0906 | -0.0189 | -0.0385 | -0.0457 | 0.665 |
| CC1(C)CCC(CN2CCN(c3ccc(C(=O)NS(=O)(=O)c4ccc(NCC5CCOCC5)c([N+](=O)[O-])c4)c(Oc4cnc5[nH]ccc5c4)c3)CC2)=C(c2ccc(Cl)cc2)C1 [Venetoclax] + C[C@@H]1COCCN1C2=NC(=NC(=C2)C3(CC3)[S@](=N)(=O)C)C4=C5C=CNC5=NC=C4 [AZD6738] (first compound max 1 µM, 7x7, partner max 10 µM) | 0.0039 | -0.03 | -0.0444 | -0.0163 | 0.0294 | -0.0256 | 0.075 | -0.0162 | -0.027 | 0.015 | -0.0296 | -0.0562 | -0.054 | 0.485 |
| CN(C)CCCOc1ccc(-c2ccc3ncc4c(c3c2)n(C2CCOCC2)c(=O)n4C)cn1 [AZD0156] + CCN(CCO)CCCOc1ccc2c(Nc3cc(CC(=O)Nc4cccc(F)c4)[nH]n3)ncnc2c1 [AZD2811] (first compound max 1 µM, 7x7, partner max 1 µM) | -0.0074 | -0.0083 | – | -0.0232 | 0.0018 | -0.0347 | -0.0001 | -0.0768 | -0.0356 | 0.0759 | -0.0218 | -0.0087 | -0.0473 | – |
| CN(CCO)CC[C@H](CSc1ccccc1)Nc1ccc(S(=O)(=O)NC(=O)c2ccc(N3CCC([C@@H](O)c4ccccc4-c4ccc(Cl)cc4)CC3)cc2)cc1S(=O)(=O)C(F)(F)F [AZD4320] + C1CN(CCC1(C(=O)N[C@@H](CCO)C2=CC=C(C=C2)Cl)N)C3=NC=NC4=C3C=CN4 [Capivasertib] (first compound max 1 µM, 7x7, partner max 3 µM) | -0.022 | -0.0437 | – | -0.0206 | -0.0173 | -0.0223 | 0.0226 | 0.0563 | -0.0281 | -0.0012 | -0.054 | -0.0305 | -0.0309 | – |
| Cc1c2c(nn1C)CSCc1cc(n(C)n1)CSc1cc(c3ccccc3c1)OCCCc1c(C(=O)O)n(C)c3c-2c(Cl)ccc13 [AZD5991] + Cn1cnc2c(F)c(Nc3ccc(Br)cc3Cl)c(C(=O)NOCCO)cc21 [Selumetinib] (first compound max 1 µM, 7x7, partner max 3 µM) | -0.0136 | -0.0116 | – | 0.0387 | 0.0484 | 0.139 | 0.0316 | 0.0516 | -0.01 | 0.135 | -0.0258 | -0.005 | -0.0474 | – |
| COc1cccc2c1C(=O)c1c(O)c3c(c(O)c1C2=O)C[C@@](O)(C(=O)CO)C[C@@H]3O[C@H]1C[C@H](N)[C@H](O)[C@H](C)O1 [Doxorubicin] + Cc1cc2ncnn2cc1Nc1ncc2c(n1)n(C1CCOCC1)c(=O)n2C [AZD7648] (first compound max 1 µM, 7x7, partner max 10 µM) | 0.0851 | 0.0476 | – | 0.112 | 0.0172 | 0.0698 | 0.0044 | 0.0656 | 0.0138 | 0.128 | 0.0194 | 0.0878 | 0.0083 | – |
| C=CCn1c(=O)c2cnc(Nc3ccc(N4CCN(C)CC4)cc3)nc2n1-c1cccc(C(C)(C)O)n1 [AZD1775] + O=C(c1cc(Cc2n[nH]c(=O)c3ccccc23)ccc1F)N1CCN(C(=O)C2CC2)CC1 [Olaparib] (first compound max 1 µM, partner max 10 µM) | 0.0057 | 0.02 | – | 0.0017 | -0.0142 | -0.0188 | -0.0195 | -0.0005 | -0.0054 | -0.027 | -0.0105 | -0.0292 | -0.0564 | – |
| Cc1c2c(nn1C)CSCc1cc(n(C)n1)CSc1cc(c3ccccc3c1)OCCCc1c(C(=O)O)n(C)c3c-2c(Cl)ccc13 [AZD5991] + CN(C)CCCOc1ccc(-c2ccc3ncc4c(c3c2)n(C2CCOCC2)c(=O)n4C)cn1 [AZD0156] (first compound max 1 µM, 7x7, partner max 1 µM) | 0.0158 | -0.0079 | – | 0.0079 | -0.0098 | -0.007 | 0.0115 | 0.0198 | -0.0322 | -0.0177 | 0.01 | -0.0503 | -0.0139 | – |
| CC(=O)Nc1cccc(-n2c(=O)n(C3CC3)c(=O)c3c(Nc4ccc(I)cc4F)n(C)c(=O)c(C)c32)c1 [Trametinib] + Cc1nc(-c2cn3c(n2)-c2ccc(-c4cnn(C(C)(C)C(N)=O)c4)cc2OCC3)n(C(C)C)n1 [Taselisib] (first compound max 1 µM, 7x7, partner max 10 µM) | 0.0483 | 0.152 | – | 0.0571 | 0.127 | 0.0324 | 0.131 | 0.134 | 0.0238 | 0.0306 | 0.102 | 0.134 | 0.136 | – |
